{
  "source": "patent US9297017B2",
  "about": "“Methods and compositions for targeted protein degradation” (University of Washington, priority 2010, dated 2016)",
  "key": {"[1]": {"biological_target": "T1, full-length JAZ6 (Arabidopsis thaliana, UniProt Q9C9E3)", "T1 construct": "6xHis; made in house; host or cells: Escherichia coli", "T1 sequence (Q9C9E3 1-269)": "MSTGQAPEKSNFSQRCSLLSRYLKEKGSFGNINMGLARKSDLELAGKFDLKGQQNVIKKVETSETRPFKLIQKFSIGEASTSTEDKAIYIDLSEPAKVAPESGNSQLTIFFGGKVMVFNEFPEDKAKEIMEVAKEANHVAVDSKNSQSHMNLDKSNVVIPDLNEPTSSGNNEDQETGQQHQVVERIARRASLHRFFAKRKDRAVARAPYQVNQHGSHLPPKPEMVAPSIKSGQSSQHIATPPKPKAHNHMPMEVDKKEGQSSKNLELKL", "assay": "Radioligand binding of 3H-coronatine to full-length JAZ6 alone", "description": "(§1) (^3H)-labeled coronatine was synthesized by Amersham. Full-length Arabidopsis thaliana COI1 and ASK1 were co-expressed as a glutathione S-transferase (GST) fusion protein and an untagged protein, respectively, in Hi5 suspension insect cells. The COI1/ASK1 complex was isolated from the soluble cell lysate by glutathione affinity chromatography. After on-column tag cleavage by tobacco etch virus protease, the complex was further purified by anion exchange and gel filtration chromatography and concentrated by ultrafiltration to 12-18 mg ml^−1. Full-length JAZ substrate proteins were expressed as 6×His-fusion proteins in Escherichia coli and purified on Ni-NTA resin with subsequent dialysis into 20 mM Tris-HCl, pH 8.0, 200 mM NaCl, and 10% glycerol.\n(§2) Radioligand binding was assayed on purified proteins, with 2 mg COI1/ASK1 complex and JAZ proteins at a 1:3 molar ratio. […] Nonspecific binding was determined in the presence of […] coronatine. Competition binding experiments were conducted with serial dilutions of JA-Ile in the presence of 100 nM ^3H coronatine with nonspecific binding determined in the presence of […] coronatine. Total binding was determined in the presence of vehicle only. Two-point binding experiments were performed in the presence of 100 nM or 300 nM ^3H-coronatine with nonspecific binding determined in the presence of 300 mM coronatine. […]"}, "[2]": {"biological_target": "T2, JAZ6F195A/COI1 (Arabidopsis thaliana, UniProt O04197+Q9C9E3, F195A)", "T2 construct": "Full-length Arabidopsis thaliana COI1 and ASK1 were co-expressed; Full-length JAZ substrate proteins were expressed as 6×His-fusion proteins in Escherichia coli; GST (cleaved yes); 6xHis; made in house; host or cells: Hi5 insect cells (COI1/ASK1); Escherichia coli (JAZ6 F195A)", "T2 sequence (O04197 1-592)": "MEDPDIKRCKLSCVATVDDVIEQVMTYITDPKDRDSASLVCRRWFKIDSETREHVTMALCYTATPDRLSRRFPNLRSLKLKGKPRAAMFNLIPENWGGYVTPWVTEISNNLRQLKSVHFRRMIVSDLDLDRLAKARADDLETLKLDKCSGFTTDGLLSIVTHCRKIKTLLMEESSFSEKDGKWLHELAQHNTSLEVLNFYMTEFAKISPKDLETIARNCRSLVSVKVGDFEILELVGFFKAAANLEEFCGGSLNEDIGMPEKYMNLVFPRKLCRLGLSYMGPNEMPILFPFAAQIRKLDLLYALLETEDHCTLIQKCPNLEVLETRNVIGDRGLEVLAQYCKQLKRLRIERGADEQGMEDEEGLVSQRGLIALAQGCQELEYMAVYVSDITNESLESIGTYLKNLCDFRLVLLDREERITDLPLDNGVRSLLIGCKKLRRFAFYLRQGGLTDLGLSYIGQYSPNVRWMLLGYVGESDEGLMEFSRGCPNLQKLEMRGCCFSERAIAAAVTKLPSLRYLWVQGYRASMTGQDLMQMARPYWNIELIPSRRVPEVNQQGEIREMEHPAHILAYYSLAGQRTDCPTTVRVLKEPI", "T2 sequence (Q9C9E3 1-269 F195A)": "T1 sequence (Q9C9E3 1-269) with F195A", "T2 sequence (Q39255 1-160 partner)": "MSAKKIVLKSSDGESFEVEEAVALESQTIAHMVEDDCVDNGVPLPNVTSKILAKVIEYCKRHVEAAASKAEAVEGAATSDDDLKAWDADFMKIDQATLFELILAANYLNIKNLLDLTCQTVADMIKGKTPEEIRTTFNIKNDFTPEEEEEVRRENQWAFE", "assay": "Binding of 3H-coronatine (300 nM) to JAZ6F195A/COI1", "conditions": "300 nM 3H-coronatine", "description": "as §1, §2"}, "[3]": {"biological_target": "T3, COI1 (Arabidopsis thaliana, UniProt O04197)", "T3 construct": "Full-length Arabidopsis thaliana COI1 and ASK1 were co-expressed; GST (cleaved yes); made in house; host or cells: Hi5 insect cells (COI1/ASK1); JAZ peptides synthetic", "T3 sequence (O04197 1-592)": "T2 sequence (O04197 1-592)", "T3 sequence (Q39255 1-160 partner)": "T2 sequence (Q39255 1-160 partner)", "assay": "Radioligand binding of 3H-coronatine to COI1 alone", "description": "as §1\n(§3) Radioligand binding was assayed on purified proteins, with 2 mg COI1/ASK1 complex and JAZ proteins at a 1:3 molar ratio. Reactions were prepared in […] final volume and in a binding buffer containing 20 mM Tris-HCl 200 mM NaCl, and 10% glycerol. Saturation binding experiments were conducted with serial dilutions of 3H-coronatine in binding buffer. Nonspecific binding was determined in the presence of […] coronatine. Competition binding experiments were conducted with serial dilutions of JA-Ile in the presence of 100 nM ^3H coronatine with nonspecific binding determined in the presence of […] coronatine. Total binding was determined in the presence of vehicle only. Two-point binding experiments were performed in the presence of 100 nM or 300 nM ^3H-coronatine with nonspecific binding determined in the presence of […] coronatine. Following incubation with mixing at 4° C., all samples were collected with a cell harvester (Brandel, Gaithersburg, Md.) on polyethyleneimine (Sigma)-treated filters. […] Saturation binding experiments were analyzed by nonlinear regression, competition binding experiments by nonlinear regression with Ki calculation as described previously (Cheng 1973), and concentration-response data by sigmoidal dose-response curve fitting, all using GraphPad Prism version 4.00 for MacOSX."}, "[4]": {"biological_target": "T4, COI1-JAZ6 complex (Arabidopsis thaliana, UniProt O04197+Q9C9E3)", "T4 construct": "Full-length Arabidopsis thaliana COI1 and ASK1 were co-expressed; Full-length JAZ substrate proteins were expressed as 6×His-fusion proteins in Escherichia coli; GST (cleaved yes); 6xHis; made in house; host or cells: Hi5 insect cells (COI1/ASK1); Escherichia coli (JAZ6)", "T4 sequence (O04197 1-592)": "T2 sequence (O04197 1-592)", "T4 sequence (Q39255 1-160 partner)": "T2 sequence (Q39255 1-160 partner)", "T4 sequence (Q9C9E3 1-269)": "T1 sequence (Q9C9E3 1-269)", "assay": "Competition binding with 100 nM 3H-coronatine", "conditions": "relative to (3R,7S)-JA-Ile", "description": "as §1, §3"}, "[5]": {"biological_target": "T5, full-length JAZ1 (Arabidopsis thaliana, UniProt Q9LMA8)", "T5 construct": "6xHis; made in house; host or cells: Escherichia coli", "T5 sequence (Q9LMA8 1-253)": "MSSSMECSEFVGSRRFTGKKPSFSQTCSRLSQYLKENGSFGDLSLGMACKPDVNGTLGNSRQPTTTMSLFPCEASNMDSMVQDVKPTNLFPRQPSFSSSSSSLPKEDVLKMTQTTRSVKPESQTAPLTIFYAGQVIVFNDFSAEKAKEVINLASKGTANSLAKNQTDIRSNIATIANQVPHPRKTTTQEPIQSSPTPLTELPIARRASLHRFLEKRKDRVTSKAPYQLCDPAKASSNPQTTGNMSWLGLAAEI", "assay": "Radioligand binding of 3H-coronatine to full-length JAZ1 alone", "description": "as §1, §2"}},
  "note": "Substitutions are numbered along the chain they refer to. Like-named read-outs stand apart in the source and are kept apart here.",
  "data": [
    {"smiles": "CC[C@H]1C=C(C(=O)N[C@@]2(C(=O)O)C[C@@H]2CC)[C@H]2CCC(=O)[C@H]2C1", "note": "[coronatine]", "values": [
      {"measurement": "Binding affinity for JAZ6 alone", "setting": "[1]", "result": "minimal binding affinity"},
      {"measurement": "Binding affinity for JAZ6 alone", "setting": "[1]; listed as 3H-coronatine", "result": "no appreciable binding affinity"},
      {"measurement": "High affinity interaction with COI1/JAZ6 after mutation of the conserved phenylalanine to alanine", "setting": "[2]", "result": "abolish the high affinity interaction"},
      {"measurement": "Specific binding to COI1 alone", "setting": "[3]; 300 nM coronatine", "result": "< 2", "unit": "%"},
      {"measurement": "Binding affinity for COI1 alone", "setting": "[3]", "result": "minimal binding affinity"},
      {"measurement": "Binding affinity for COI1 alone", "setting": "[3]; listed as 3H-coronatine", "result": "no appreciable binding affinity"},
      {"measurement": "Affinity of coronatine over (3R,7S)-JA-Ile in binding assays", "setting": "[4]", "result": "approximately tenfold"},
      {"measurement": "Binding affinity for JAZ1 alone", "setting": "[5]", "result": "minimal binding affinity"},
      {"measurement": "Binding affinity for JAZ1 alone", "setting": "[5]; listed as 3H-coronatine", "result": "no appreciable binding affinity"}
    ]}
  ]
}
